Test results: patent US20230085307A1, “PYRIDAZINONE COMPOUND AND HERBICIDE” (NISSAN CHEMICAL CORPORATION, priority 2019, published 2023)

Tests used:
velvetleaf [1] = test: Test Example 4: herbicidal effect by soil treatment (Table 19, symbol M); type: in vivo, velvetleaf (Abutilon theophrasti); conditions: amount of applied herbicide 320 g/ha
Method in brief: (§1)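 Soil-surface application: an emulsion agent diluted with water to the predetermined dose is sprayed uniformly over seeds lying under roughly 1.5 cm of sterilized diluvial soil. Boxes stay in a greenhouse at 25° C. to 30° C. Three weeks later, each species is graded on previously defined criteria.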

Italian ryegrass [2] = test: Test Example 5: herbicidal effect by foliage application, plastic box (Table 20, symbol K); type: in vivo, Italian ryegrass (Lolium multiflorum); conditions: foliage application, 320 g/ha, three weeks after application
Method in brief: (§2)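 Sow seeds spot-wise in sterilized diluvial soil; cover with ~1.5 cm soil. Grow 14 days in greenhouse, 25° C. to 30° C. Spray foliage with emulsion diluted to predetermined amount. Rate effect after 3 weeks.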

Japanese bulrush = test: Test Example 2: herbicidal activity, application during weed generation under submerged conditions (Table 17, symbol B); type: in vivo, Japanese bulrush (Schoenoplectus juncoides); conditions: AAH 320 g/ha; application during weed generation, submerged conditions
Method in brief: (§3)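 3-wk visual-criteria score after one water-surface dose. Emulsion formulation, water-diluted to set rate; applied at 1–2 leaf stage; alluvial soil, 4 cm standing water; seeds co-sown; greenhouse 25–30° C.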

redroot pigweed = test: Test Example 5: herbicidal effect by foliage application, plastic box (Table 20, symbol N); type: in vivo, redroot pigweed (Amaranthus retroflexus); conditions: foliage application, 320 g/ha, three weeks after application
Method in brief: as §2

lambsquarters = test: Test Example 4: herbicidal effect by soil treatment (Table 19, symbol O); type: in vivo, lambsquarters (Chenopodium album); conditions: amount of applied herbicide 320 g/ha
Method in brief: as §1

barnyard grass [3] = test: Test Example 3: herbicidal effect by foliage application, Wagner pot (Table 18, symbol H); type: in vivo, barnyard grass (Echinochloa crus-galli); conditions: for herbicidal effect on barnyard grass (H): 320 g/ha; for Herbicidal effect on H (barnyard grass), foliage application: amount of applied herbicide 320 g/ha
Method in brief: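 Plants were sown in alluvial soil held under 0.1–0.5 cm standing water and grown 14 days in a greenhouse at 25–30 °C. An emulsifiable formulation, water-diluted to the set dose, was then sprayed onto the foliage, and effects were scored three weeks later using previously defined criteria.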

persian speedwell = test: Test Example 5: herbicidal effect by foliage application, plastic box (Table 20, symbol R); type: in vivo, Persian speedwell (Veronica persica); conditions: foliage application, 320 g/ha, three weeks after application
Method in brief: as §2

chickweed [4] = test: Test Example 4: herbicidal effect by soil treatment (Table 19, symbol P); type: in vivo, common chickweed (Stellaria media); conditions: amount of applied herbicide 320 g/ha
Method in brief: as §1

Italian ryegrass [5] = test: Test Example 4: herbicidal effect by soil treatment (Table 19, symbol K); type: in vivo, Italian ryegrass (Lolium multiflorum); conditions: amount of applied herbicide 320 g/ha
Method in brief: as §1

chickweed [6] = test: Test Example 5: herbicidal effect by foliage application, plastic box (Table 20, symbol P); type: in vivo, common chickweed (Stellaria media); conditions: foliage application, 320 g/ha, three weeks after application
Method in brief: as §2

wild oat = test: Test Example 4: herbicidal effect by soil treatment (Table 19, symbol I); type: in vivo, wild oat (Avena fatua); conditions: amount of applied herbicide 320 g/ha
Method in brief: as §1

green foxtail = test: Test Example 4: herbicidal effect by soil treatment (Table 19, symbol G); type: in vivo, green foxtail (Setaria viridis); conditions: amount of applied herbicide 320 g/ha
Method in brief: as §1

blackgrass [7] = test: Test Example 5: herbicidal effect by foliage application, plastic box (Table 20, symbol J); type: in vivo, blackgrass (Alopecurus myosuroides); conditions: foliage application, 320 g/ha, three weeks after application
Method in brief: as §2

velvetleaf [8] = test: Test Example 5: herbicidal effect by foliage application, plastic box (Table 20, symbol M); type: in vivo, velvetleaf (Abutilon theophrasti); conditions: foliage application, 320 g/ha, three weeks after application
Method in brief: as §2

late watergrass = test: Test Example 2: herbicidal activity, application during weed generation under submerged conditions (Table 17, symbol A); type: in vivo, late watergrass (Echinochloa oryzicola); conditions: AAH 320 g/ha; application during weed generation, submerged conditions
Method in brief: as §3

barnyard grass [9] = test: Test Example 4: herbicidal effect by soil treatment (Table 19, symbol H); type: in vivo, barnyard grass (Echinochloa crus-galli); conditions: amount of applied herbicide 320 g/ha
Method in brief: as §1

blackgrass [10] = test: Test Example 4: herbicidal effect by soil treatment (Table 19, symbol J); type: in vivo, blackgrass (Alopecurus myosuroides); conditions: amount of applied herbicide 320 g/ha
Method in brief: as §1

SMILES | M: velvetleaf, herbicidal effect grade (velvetleaf [1]) | herbicidal effect rating, B: Japanese bulrush (Japanese bulrush) | O: lambsquarters, herbicidal effect grade (lambsquarters) | herbicidal effect on barnyard grass (H) (barnyard grass [3]) | P: chickweed, herbicidal effect grade (chickweed [4]) | K: Italian ryegrass, herbicidal effect grade (Italian ryegrass [5]) | I: wild oat, herbicidal effect grade (wild oat) | G: green foxtail, herbicidal effect grade (green foxtail) | herbicidal effect rating, A: late watergrass (late watergrass) | H: barnyard grass, herbicidal effect grade (barnyard grass [9]) | herbicidal effect on Italian ryegrass (K) (Italian ryegrass [2]) | herbicidal effect on persian speedwell (R) (persian speedwell) | herbicidal effect on blackgrass (J) (blackgrass [7]) | herbicidal effect on velvetleaf (M) (velvetleaf [8]) | J: blackgrass, herbicidal effect grade (blackgrass [10]) | Herbicidal effect on H (barnyard grass), foliage application (barnyard grass [3]) | also measured
C=CCOc1ccc2c(-c3c(O)c(C)nn(C)c3=O)c(-c3ccccc3OC)sc2c1 [3-111] | 3 (Herbicidal rate of 40% or more and less than 70%) | 3 (Herbicidal rate of 40% or more and less than 70%) | 5 (Herbicidal rate of 90% or more (almost completely withered)) | 5 (Herbicidal rate of 90% or more (almost completely withered)) | 3 (Herbicidal rate of 40% or more and less than 70%) | 5 (Herbicidal rate of 90% or more (almost completely withered)) | 3 (Herbicidal rate of 40% or more and less than 70%) | 5 (Herbicidal rate of 90% or more (almost completely withered)) | 4 (Herbicidal rate of 70% or more and less than 90%) | 4 (Herbicidal rate of 70% or more and less than 90%) | – | – | – | – | – | – | K: Italian ryegrass, herbicidal effect grade (Italian ryegrass [2]): 5 (Herbicidal rate of 90% or more (almost completely withered)); N: redroot pigweed, herbicidal effect grade (redroot pigweed): 5 (Herbicidal rate of 90% or more (almost completely withered)); R: persian speedwell, herbicidal effect grade (persian speedwell): 5 (Herbicidal rate of 90% or more (almost completely withered)); P: chickweed, herbicidal effect grade (chickweed [6]): 5 (Herbicidal rate of 90% or more (almost completely withered)); J: blackgrass, herbicidal effect grade (blackgrass [7]): 5 (Herbicidal rate of 90% or more (almost completely withered)); M: velvetleaf, herbicidal effect grade (velvetleaf [8]): 5 (Herbicidal rate of 90% or more (almost completely withered))
COc1ccccc1-c1sc2cc(C)c(C)cc2c1-c1c(O)c(C)nn(C)c1=O [5-090] | 0 (Herbicidal rate of 5% or less (almost no effect)) | 2 (Herbicidal rate of 20% or more and less than 40%) | 0 (Herbicidal rate of 5% or less (almost no effect)) | 5 (Herbicidal rate of 90% or more (almost completely withered)) | 1 (Herbicidal rate of 5% or more and less than 20%) | 5 (Herbicidal rate of 90% or more (almost completely withered)) | 0 (Herbicidal rate of 5% or less (almost no effect)) | 0 (Herbicidal rate of 5% or less (almost no effect)) | 0 (Herbicidal rate of 5% or less (almost no effect)) | 0 (Herbicidal rate of 5% or less (almost no effect)) | 5 (Herbicidal rate of 90% or more (almost completely withered)) | 4 (Herbicidal rate of 70% or more and less than 90%) | 4 (Herbicidal rate of 70% or more and less than 90%) | 5 (Herbicidal rate of 90% or more (almost completely withered)) | 0 (Herbicidal rate of 5% or less (almost no effect)) | – | –
CCCC(=O)Oc1c(C)nn(C)c(=O)c1-c1c(-c2ccccc2OCC)sc2cc(C)c(C)cc12 [5-095] | 0 (Herbicidal rate of 5% or less (almost no effect)) | 4 (Herbicidal rate of 70% or more and less than 90%) | 0 (Herbicidal rate of 5% or less (almost no effect)) | 5 (Herbicidal rate of 90% or more (almost completely withered)) | 3 (Herbicidal rate of 40% or more and less than 70%) | 0 (Herbicidal rate of 5% or less (almost no effect)) | 0 (Herbicidal rate of 5% or less (almost no effect)) | 0 (Herbicidal rate of 5% or less (almost no effect)) | 4 (Herbicidal rate of 70% or more and less than 90%) | 0 (Herbicidal rate of 5% or less (almost no effect)) | 4 (Herbicidal rate of 70% or more and less than 90%) | 5 (Herbicidal rate of 90% or more (almost completely withered)) | 4 (Herbicidal rate of 70% or more and less than 90%) | 4 (Herbicidal rate of 70% or more and less than 90%) | 0 (Herbicidal rate of 5% or less (almost no effect)) | – | –
CSc1ccc(-c2oc3ccc(F)cc3c2-c2c(O)c(C)nn(C)c2=O)cc1 [9-037] | 3 (Herbicidal rate of 40% or more and less than 70%) | 2 (Herbicidal rate of 20% or more and less than 40%) | 2 (Herbicidal rate of 20% or more and less than 40%) | – | – | 5 (Herbicidal rate of 90% or more (almost completely withered)) | 0 (Herbicidal rate of 5% or less (almost no effect)) | 1 (Herbicidal rate of 5% or more and less than 20%) | 0 (Herbicidal rate of 5% or less (almost no effect)) | 2 (Herbicidal rate of 20% or more and less than 40%) | 5 (Herbicidal rate of 90% or more (almost completely withered)) | 5 (Herbicidal rate of 90% or more (almost completely withered)) | 2 (Herbicidal rate of 20% or more and less than 40%) | 5 (Herbicidal rate of 90% or more (almost completely withered)) | 0 (Herbicidal rate of 5% or less (almost no effect)) | 5 (Herbicidal rate of 90% or more (almost completely withered)) | –
COc1ccccc1-c1sc2c(Cl)c(OC)ccc2c1-c1c(O)c(C)nn(C)c1=O [Compound No. 7-001, 4-(7-chloro-6-methoxy-2-(2-methoxyphenyl)benzo[b]thiophen-3-yl)-5-hydroxy-2,6-dimeth ylpyridazin-3-(2H)-one] | 3 (Herbicidal rate of 40% or more and less than 70%) | 3 (Herbicidal rate of 40% or more and less than 70%) | 5 (Herbicidal rate of 90% or more (almost completely withered)) | – | 5 (Herbicidal rate of 90% or more (almost completely withered)) | 3 (Herbicidal rate of 40% or more and less than 70%) | 0 (Herbicidal rate of 5% or less (almost no effect)) | 0 (Herbicidal rate of 5% or less (almost no effect)) | 3 (Herbicidal rate of 40% or more and less than 70%) | 3 (Herbicidal rate of 40% or more and less than 70%) | 5 (Herbicidal rate of 90% or more (almost completely withered)) | 5 (Herbicidal rate of 90% or more (almost completely withered)) | 4 (Herbicidal rate of 70% or more and less than 90%) | 5 (Herbicidal rate of 90% or more (almost completely withered)) | – | 5 (Herbicidal rate of 90% or more (almost completely withered)) | –
